From PubChem BioAssay AID256 (DTP/NCI, 2004)
Inconclusive results and toxic doses are left out.

Tested on: CD2F1 mice, L1210 leukemia ip, survival T/C
Assay: NCI In Vivo Anticancer Drug Screen. Data for tumor model L1210 Leukemia (intraperitoneal) in CD2F1 (CDF1) mice
Conditions: endpoint: mean survival time, higher = longer survival
How it was run: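 Antitumor effect is scored in animals hosting a serially transplanted tumor. Values compare compound-dosed animals against vehicle-only controls as a simple quotient.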

[1] = dose: 25.0 mg/kg/injection, schedule: Q01DX009 (ip), vehicle: Klucel (hydroxypropylcellulose) (HPC)
[2] = dose: 100.0 mg/kg/injection, schedule: Q01DX009 (ip), vehicle: saline with Tween-80
[3] = dose: 100.0 mg/kg/injection, schedule: Q04DX003 (ip), vehicle: saline with Tween-80
[4] = dose: 200.0 mg/kg/injection, schedule: Q01DX009 (ip), vehicle: saline with Tween-80
[5] = dose: 200.0 mg/kg/injection, schedule: Q04DX003 (ip), vehicle: saline with Tween-80
[6] = dose: 400.0 mg/kg/injection, schedule: Q01DX009 (ip), vehicle: saline with Tween-80
[7] = dose: 400.0 mg/kg/injection, schedule: Q04DX003 (ip), vehicle: saline with Tween-80
[8] = dose: 100.0 mg/kg/injection, schedule: Q01DX009 (ip), vehicle: saline
[9] = dose: 200.0 mg/kg/injection, schedule: Q01DX009 (ip), vehicle: saline
[10] = dose: 50.0 mg/kg/injection, schedule: Q01DX009 (ip), vehicle: saline with Tween-80
[11] = dose: 100.0 mg/kg/injection, schedule: Q01DX001 (ip), vehicle: saline with Tween-80
[12] = dose: 200.0 mg/kg/injection, schedule: Q01DX001 (ip), vehicle: saline with Tween-80
[13] = dose: 400.0 mg/kg/injection, schedule: Q01DX001 (ip), vehicle: saline with Tween-80
[14] = dose: 100.0 mg/kg/injection, schedule: Q04DX003 (ip), vehicle: saline
[15] = dose: 200.0 mg/kg/injection, schedule: Q04DX003 (ip), vehicle: saline

Q: For `O=C(Nc1cccnc1)c1cccc([N+](=O)[O-])c1`, which T/C [1] is on record?
A: 108 % of control

Q: And the T/C (dose: 25.0 mg/kg/injection, schedule: Q04DX002 (ip), vehicle: Klucel (hydroxypropylcellulose) (HPC))?
A: 97 % of control

Q: What about the T/C (dose: 50.0 mg/kg/injection, schedule: Q01DX009 (ip), vehicle: Klucel (hydroxypropylcellulose) (HPC)) of the same compound?
A: 110 % of control

Q: What about the T/C (dose: 50.0 mg/kg/injection, schedule: Q04DX002 (ip), vehicle: Klucel (hydroxypropylcellulose) (HPC)) of the same compound?
A: 102 % of control

Q: What about the T/C (dose: 100.0 mg/kg/injection, schedule: Q01DX009 (ip), vehicle: Klucel (hydroxypropylcellulose) (HPC)) of the same compound?
A: 93 % of control

Q: What about the T/C (dose: 100.0 mg/kg/injection, schedule: Q04DX002 (ip), vehicle: Klucel (hydroxypropylcellulose) (HPC)) of the same compound?
A: 97 % of control

Q: What about the T/C (dose: 200.0 mg/kg/injection, schedule: Q01DX009 (ip), vehicle: Klucel (hydroxypropylcellulose) (HPC)) of the same compound?
A: 92 % of control

Q: What about the T/C (dose: 200.0 mg/kg/injection, schedule: Q04DX002 (ip), vehicle: Klucel (hydroxypropylcellulose) (HPC)) of the same compound?
A: 96 % of control

Q: Which results are given for `CSC(=S)N(C)N`?
A: T/C [2]: 104 % of control; T/C [3]: 102 % of control; T/C [4]: 103 % of control; T/C [5]: 100 % of control; T/C [6]: 104 % of control; T/C [7]: 102 % of control

Q: How did the T/C (dose: 50.0 mg/kg/injection, schedule: Q01DX009 (ip), vehicle: saline) turn out when `O=P(O)(CO)CO` was run?
A: 95 % of control

Q: And the T/C [8]?
A: 101 % of control

Q: What about the T/C [9] of the same compound?
A: 95 % of control

Q: Which T/C [8] does the source give for `CC12OC3(C)C4C(O)C1C1(C)OC4(C)C3C(O)C21` (stereo not drawn) here?
A: 96 % of control

Q: And the T/C [9]?
A: 102 % of control

Q: And the T/C (dose: 400.0 mg/kg/injection, schedule: Q01DX009 (ip), vehicle: saline)?
A: 98 % of control

Q: What does the source list for `O=C(CC1(O)C(=O)Nc2ccccc21)c1c[nH]c2ccccc12` (stereo not drawn)?
A: T/C [10]: 95 % of control; T/C [2]: 98 % of control; T/C [4]: 91 % of control

Q: How did the T/C (dose: 8.0 mg/kg/injection, schedule: Q01DX009 (ip), vehicle: acid diluted with saline) turn out when `O=C1c2ccccc2C(=O)c2c(NCCNCCNCCO)ccc(NCCNCCNCCO)c21` was run?
A: 100 % of control

Q: What about the T/C (dose: 16.0 mg/kg/injection, schedule: Q01DX009 (ip), vehicle: acid diluted with saline) of the same compound?
A: 96 % of control

Q: What about the T/C (dose: 32.0 mg/kg/injection, schedule: Q01DX009 (ip), vehicle: acid diluted with saline) of the same compound?
A: 108 % of control

Q: What about the T/C (dose: 64.0 mg/kg/injection, schedule: Q01DX009 (ip), vehicle: acid diluted with saline) of the same compound?
A: 96 % of control

Q: How did the T/C [3] turn out when `Cc1ccc(C(O)S(=O)(=O)O)cc1` (stereo not drawn) was run?
A: 119 % of control

Q: What about the T/C [5] of the same compound?
A: 103 % of control

Q: And the T/C [7]?
A: 115 % of control

Q: What does the source list for `Cc1ccc2nc(NC(=O)N(CCCl)N=O)sc2c1`?
A: T/C (dose: 118.0 mg/kg/injection, schedule: Q01DX009 (ip), vehicle: other): 197 % of control; T/C (dose: 177.0 mg/kg/injection, schedule: Q01DX001 (ip), vehicle: other): 162 % of control; T/C (dose: 177.0 mg/kg/injection, schedule: Q01DX009 (ip), vehicle: other): 96 % of control; T/C (dose: 266.0 mg/kg/injection, schedule: Q01DX001 (ip), vehicle: other): 154 % of control; T/C (dose: 266.0 mg/kg/injection, schedule: Q01DX009 (ip), vehicle: other): 111 % of control; T/C (dose: 400.0 mg/kg/injection, schedule: Q01DX001 (ip), vehicle: other): 156 % of control; T/C (dose: 400.0 mg/kg/injection, schedule: Q01DX009 (ip), vehicle: other): 88 % of control; T/C (dose: 600.0 mg/kg/injection, schedule: Q01DX001 (ip), vehicle: other): 234 % of control

Q: Which results are given for `O=C(Nc1cccc2ccccc12)c1ccccc1`?
A: T/C [11]: 95 % of control; T/C [12]: 95 % of control; T/C [13]: 92 % of control

Q: Which T/C [3] does the source give for `Cc1ccc(S(=O)(=O)NC(CSCc2ccccc2)C(=O)O)cc1` (stereo not drawn) here?
A: 94 % of control

Q: What about the T/C [5] of the same compound?
A: 93 % of control

Q: And the T/C [7]?
A: 95 % of control

Q: How did the T/C [2] turn out when `COC(=O)C1C=Cc2ccccc21` (stereo not drawn) was run?
A: 95 % of control

Q: What about the T/C [4] of the same compound?
A: 95 % of control

Q: And the T/C [6]?
A: 104 % of control

Q: Which T/C (dose: 0.25 mg/kg/injection, schedule: Q01DX009 (ip), vehicle: saline) does the source give for `CCCCCCCCCCCCOCC[N+](CCO)(CCO)Cc1ccccc1` here?
A: 91 % of control

Q: And the T/C (dose: 0.5 mg/kg/injection, schedule: Q01DX009 (ip), vehicle: saline)?
A: 107 % of control

Q: What about the T/C (dose: 1.0 mg/kg/injection, schedule: Q01DX009 (ip), vehicle: saline) of the same compound?
A: 90 % of control

Q: And the T/C (dose: 5.0 mg/kg/injection, schedule: Q04DX003 (ip), vehicle: saline)?
A: 102 % of control

Q: What about the T/C (dose: 10.0 mg/kg/injection, schedule: Q04DX003 (ip), vehicle: saline) of the same compound?
A: 101 % of control

Q: And the T/C (dose: 20.0 mg/kg/injection, schedule: Q04DX003 (ip), vehicle: saline)?
A: 93 % of control

Q: Which T/C (dose: 12.5 mg/kg/injection, schedule: Q01DX005 (ip), vehicle: water) does the source give for `NC(=O)c1ncn(C2OC(CO)C(O)C2O)c1C(N)=O` (stereo not drawn) here?
A: 102 % of control

Q: What about the T/C (dose: 25.0 mg/kg/injection, schedule: Q01DX005 (ip), vehicle: water) of the same compound?
A: 112 % of control

Q: And the T/C (dose: 50.0 mg/kg/injection, schedule: Q01DX005 (ip), vehicle: water)?
A: 107 % of control

Q: What about the T/C (dose: 100.0 mg/kg/injection, schedule: Q01DX005 (ip), vehicle: water) of the same compound?
A: 104 % of control

Q: What about the T/C (dose: 200.0 mg/kg/injection, schedule: Q01DX005 (ip), vehicle: water) of the same compound?
A: 112 % of control

Q: `CCNC(C)(C)C(SSSC(c1ccc(Cl)cc1)C(C)(C)NCC)c1ccc(Cl)cc1` (stereo not drawn) was tested. Which T/C [14] did it give?
A: 109 % of control

Q: What about the T/C [15] of the same compound?
A: 86 % of control

Q: For `O=P(c1ccccc1)(c1ccccc1)P(=O)(c1ccccc1)c1ccccc1`, which T/C [11] is on record?
A: 90 % of control

Q: And the T/C [12]?
A: 90 % of control

Q: What about the T/C [13] of the same compound?
A: 96 % of control

Q: Which T/C (dose: 75.0 mg/kg/injection, schedule: Q01DX001 (ip), vehicle: saline) does the source give for `CC(C)(C)/[N+]([O-])=N/O` here?
A: 101 % of control

Q: Which results are given for `O=c1[nH]c(=S)[nH]c(-c2ccc(Cl)cc2)c1CCO`?
A: T/C [3]: 94 % of control; T/C [5]: 92 % of control; T/C [7]: 90 % of control

Q: What does the source list for `CN(C)/C(=C\C(=O)c1ccccc1)c1ccccc1`?
A: T/C (dose: 25.0 mg/kg/injection, schedule: Q04DX003 (ip), vehicle: saline with Tween-80): 104 % of control; T/C (dose: 50.0 mg/kg/injection, schedule: Q04DX003 (ip), vehicle: saline with Tween-80): 108 % of control; T/C [3]: 93 % of control

Q: How did the T/C (dose: 50.0 mg/kg/injection, schedule: Q01DX001 (ip), vehicle: saline with Tween-80) turn out when `O=S1(=O)CCS(=O)(=O)C1` was run?
A: 104 % of control

Q: What about the T/C [11] of the same compound?
A: 98 % of control

Q: What about the T/C [12] of the same compound?
A: 95 % of control

Q: With `O=C(C=C(C(F)(F)F)C(F)(F)F)c1ccc(C(=O)C=C(C(F)(F)F)C(F)(F)F)cc1` as the compound, how does the T/C [3] read?
A: 105 % of control

Q: And the T/C [5]?
A: 93 % of control

Q: With `NP(N)(=O)c1ccccc1` as the compound, how does the T/C [14] read?
A: 94 % of control

Q: And the T/C [15]?
A: 98 % of control

Q: What about the T/C (dose: 400.0 mg/kg/injection, schedule: Q04DX003 (ip), vehicle: saline) of the same compound?
A: 94 % of control

Q: Which T/C [10] does the source give for `C=CCCCCCCCCC(=O)Nc1cc2c3c(c1)CCCN3CCC2` here?
A: 97 % of control

Q: And the T/C [2]?
A: 101 % of control

Q: What about the T/C [3] of the same compound?
A: 93 % of control

Q: With `CCN(CC)C(=S)SC/C=C\CC(Cl)(Cl)Cl` as the compound, how does the T/C (dose: 75.0 mg/kg/injection, schedule: Q04DX003 (ip), vehicle: saline) read?
A: 97 % of control

Q: What about the T/C (dose: 150.0 mg/kg/injection, schedule: Q04DX003 (ip), vehicle: saline) of the same compound?
A: 101 % of control

Q: And the T/C (dose: 300.0 mg/kg/injection, schedule: Q04DX003 (ip), vehicle: saline)?
A: 109 % of control

Q: Which results are given for `CC(=O)O[C@H]1CC[C@H]2[C@@H]3CCC4=C(Cl)C(=O)CC[C@]4(C)[C@H]3CC[C@]12C`?
A: T/C [2]: 96 % of control; T/C [3]: 97 % of control; T/C [4]: 94 % of control; T/C [5]: 96 % of control; T/C [6]: 94 % of control; T/C [7]: 103 % of control

Q: How did the T/C (dose: 6.25 mg/kg/injection, schedule: Q01DX009 (ip), vehicle: Klucel (hydroxypropylcellulose) (HPC)) turn out when `COc1cc(N=Nc2ccccc2C(=O)O)ccc1N(CCCl)CCCl` was run?
A: 99 % of control

Q: What about the T/C (dose: 12.5 mg/kg/injection, schedule: Q01DX009 (ip), vehicle: Klucel (hydroxypropylcellulose) (HPC)) of the same compound?
A: 108 % of control

Q: What about the T/C [1] of the same compound?
A: 123 % of control

Q: For `C1CC[N-]CC1.C1CC[N-]CC1.[Cl][Pd][Cl]`, which T/C (dose: 25.0 mg/kg/injection, schedule: Q04DX002 (ip), vehicle: saline with Tween-80) is on record?
A: 89 % of control

Q: And the T/C (dose: 50.0 mg/kg/injection, schedule: Q04DX002 (ip), vehicle: saline with Tween-80)?
A: 96 % of control

Q: Which results are given for `Cc1ccc(S(=O)(=O)OC2CC3CCC2C3)cc1` (stereo not drawn)?
A: T/C (dose: 100.0 mg/kg/injection, schedule: Q04DX003 (ip), vehicle: acetone): 105 % of control; T/C (dose: 200.0 mg/kg/injection, schedule: Q04DX003 (ip), vehicle: acetone): 101 % of control; T/C (dose: 400.0 mg/kg/injection, schedule: Q04DX003 (ip), vehicle: acetone): 100 % of control
